Patent publication US12258337B2, “Bicyclic CX3CR1 receptor agonists” (Board of Regents, The University of Texas System, priority 2019, dated 2025)

Key:
Type in all cases: cell-based
[1] = molecular target: T1, mCX3CR1 (Mus musculus, UniProt Q9Z0D9); assay: Ga16 assay, CX3CR1 agonism, Ca2+ sensitive photo-protein readout (FLIPRTETRA); details: mouse CX3CR1 cell line
T1 construct: expressed in transfected cells; stably expresses a Ca2+ sensitive photo-protein
T1 sequence (Q9Z0D9 1-354): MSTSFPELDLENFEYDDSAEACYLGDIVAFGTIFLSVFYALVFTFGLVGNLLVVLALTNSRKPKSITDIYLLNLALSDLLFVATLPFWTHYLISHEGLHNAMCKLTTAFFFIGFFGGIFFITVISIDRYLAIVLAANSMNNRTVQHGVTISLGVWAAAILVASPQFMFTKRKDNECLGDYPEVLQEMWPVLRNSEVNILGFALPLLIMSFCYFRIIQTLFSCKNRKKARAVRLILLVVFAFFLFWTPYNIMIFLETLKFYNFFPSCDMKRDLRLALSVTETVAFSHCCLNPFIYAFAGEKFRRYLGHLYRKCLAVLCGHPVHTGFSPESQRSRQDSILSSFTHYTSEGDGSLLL
Procedure, shortened: (§1)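 Cells expressing human, mouse or rat CX3CR1 with a stably expressed Ca2+-sensitive photoprotein were loaded with 10 μM coelenterazine in tyrode buffer pH 7.4 for 3 h at room temperature. Agonist-mode luminescence kinetics were recorded for 90 s after compound injection on FLIPRTETRA. Dose-response runs were done in quadruplicate, with fractalkine as the reference agonist.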

[2] = molecular target: T2, rCX3CR1 (Rattus norvegicus, UniProt P35411); assay: as above; details: rat CX3CR1 cell line
T2 construct: expressed in transfected cells; stably expresses a Ca2+ sensitive photo-protein
T2 sequence (P35411 1-354): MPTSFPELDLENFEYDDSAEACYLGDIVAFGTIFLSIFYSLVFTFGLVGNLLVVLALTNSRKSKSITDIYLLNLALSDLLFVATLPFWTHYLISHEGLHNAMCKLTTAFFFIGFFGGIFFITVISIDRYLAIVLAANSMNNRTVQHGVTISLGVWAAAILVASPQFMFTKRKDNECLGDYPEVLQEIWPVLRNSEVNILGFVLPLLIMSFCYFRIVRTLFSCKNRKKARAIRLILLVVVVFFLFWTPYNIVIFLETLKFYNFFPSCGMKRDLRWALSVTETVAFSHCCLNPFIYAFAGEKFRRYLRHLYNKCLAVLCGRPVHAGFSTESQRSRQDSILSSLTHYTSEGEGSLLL
Procedure, shortened: as §1

[3] = molecular target: T3, hCX3CR1 (Homo sapiens, UniProt P49238); assay: Suchi5 assay (HEK/NatClytin/CNG/Suchi5 transiently transfected hCX3CR1, Fluo-8 Ca2+ readout); set-up: expressed in transfected cells; stably expresses a Ca2+ sensitive photo-protein; details: Suchi5 assay, HEK/NatClytin/CNG/Suchi5 transfected with hCX3CR1; read-out: hCX3CR1 agonism EC50
T3 sequence (P49238 1-355): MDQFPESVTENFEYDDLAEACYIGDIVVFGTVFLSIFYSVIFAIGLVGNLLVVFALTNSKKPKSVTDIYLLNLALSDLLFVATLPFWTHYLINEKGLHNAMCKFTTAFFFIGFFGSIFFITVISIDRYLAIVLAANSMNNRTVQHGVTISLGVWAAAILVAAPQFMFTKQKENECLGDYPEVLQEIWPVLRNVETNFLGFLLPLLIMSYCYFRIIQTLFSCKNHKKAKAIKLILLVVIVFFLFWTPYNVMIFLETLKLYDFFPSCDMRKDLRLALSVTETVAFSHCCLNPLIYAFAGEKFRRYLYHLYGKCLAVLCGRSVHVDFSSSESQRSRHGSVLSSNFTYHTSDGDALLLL
Procedure, shortened: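 HEK/NatClytin/CNG cells overexpressing Gαiq chimera Suchi5, transiently transfected with hCX3CR1, seeded 24 h before assay. Cells loaded 1 h at RT with 0.5X Fluo-8 in Tyrode buffer (pH 7.4); compounds injected on FLIPR and Ca2+ kinetic fluorescence followed for 90 s. Agonist: recombinant human fractalkine (CX3CL1).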

## O=C(NCC1(CN2CCCC2)CC(O)C1)c1cc2c(s1)CCCCCC2 (stereo not drawn) [Example 32, N-[[3-hydroxy-1-(pyrrolidin-1-ylmethyl)cyclobutyl]methyl]-4,5,6,7,8,9-hexahydrocycloocta[b]thiophene-2-carboxamide]
[1]
  EC50: 14.8 µM
[2]
  EC50: 11.4 µM
[3]
  EC50: 5.8 µM

## CN(C)CC1(CNC(=O)c2cc3c(s2)CCCCCC3)CC(O)C1 (stereo not drawn) [Example 31, N-[[1-[(dimethylamino)methyl]-3-hydroxycyclobutyl]methyl]-4,5,6,7,8,9-hexahydrocycloocta[b]thiophene-2-carboxamide]
[1]
  EC50: 18.5 µM
[2]
  EC50: 14.8 µM
[3]
  EC50: 4.7 µM

## CN(C)CC1(CNC(=O)c2cc3c(s2)CCCCCC3)CCC1 [Example 23, N-[[1-[(dimethylamino)methyl]cyclobutyl]methyl]-4,5,6,7,8,9-hexahydrocycloocta[b]thiophene-2-carboxamide]
[1]
  EC50: 11.5 µM
[2]
  EC50: 9.5 µM
[3]
  EC50: 6.5 µM

## CN(C)CC(C)(C)CNC(=O)c1cc2c(s1)CCCCCC2 [Example 70, N-[3-(dimethylamino)-2,2-dimethylpropyl]-4,5,6,7,8,9-hexahydrocycloocta[b]thiophene-2-carboxamide]
[1]
  EC50: 44.7 µM
[2]
  EC50: 26.1 µM
[3]
  EC50: 9.3 µM

## CN(C)CC1(CNC(=O)c2cc3c(s2)CCCCCC3)CCCC1 [Example 2, N-[[1-[(dimethylamino)methyl]cyclopentyl]methyl]-4,5,6,7,8,9-hexahydrocycloocta[b]thiophene-2-carboxamide]
[1]
  EC50: 10.3 µM
[2]
  EC50: 8.5 µM
[3]
  EC50: 5.4 µM

## O=C(NCC1(CN2CCCC2)CCC1)c1cc2c(s1)CCCCCC2 [Example 21, N-[[1-(pyrrolidin-1-ylmethyl)cyclobutyl]methyl]-4,5,6,7,8,9-hexahydrocycloocta[b]thiophene-2-carboxamide]
[1]
  EC50: 6.6 µM
[2]
  EC50: 5.8 µM
[3]
  EC50: 4.7 µM

## O=C(NCC1(CN2CCCC(O)C2)CCCC1)c1cc2c(s1)CCCCCC2 (stereo not drawn) [Example 27, N-[[1-[(3-hydroxypiperidin-1-yl)methyl]cyclopentyl]methyl]-4,5,6,7,8,9-hexahydrocycloocta[b]thiophene-2-carboxamide]
[1]
  EC50: 12.7 µM
[2]
  EC50: 10.8 µM
[3]
  EC50: 7.5 µM

## CN(CCO)CC1(CNC(=O)c2cc3c(s2)CCCCCC3)CCC1 [Example 30, N-[[1-[[2-hydroxyethyl(methyl)amino]methyl]cyclobutyl]methyl]-4,5,6,7,8,9-hexahydrocycloocta[b]thiophene-2-carboxamide]
[1]
  EC50: 17 µM
[2]
  EC50: 13.4 µM
[3]
  EC50: 36.1 µM

## CC(C)(CNC(=O)c1cc2c(s1)CCCCCC2)CN1CCCC1 [Example 1, N-(2,2-dimethyl-3-pyrrolidin-1-ylpropyl)-4,5,6,7,8,9-hexahydrocycloocta[b]thiophene-2-carboxamide]
[1]
  EC50: 15.7 µM
[2]
  EC50: 13.9 µM
[3]
  EC50: 13.9 µM

## O=C(NCC1(CN2CCCCC2)CCCC1)c1cc2c(s1)CCCCCC2 [Example 15, N-[[1-(piperidin-1-ylmethyl)cyclopentyl]methyl]-4,5,6,7,8,9-hexahydrocycloocta[b]thiophene-2-carboxamide]
[1]
  EC50: 24.2 µM
[2]
  EC50: 20 µM
[3]
  EC50: 5.5 µM

## O=C(NCC1(CN2CCC(O)C2)CCCC1)c1cc2c(s1)CCCCCC2 (racemic) [Example 25, N-[[1-[(3-hydroxypyrrolidin-1-yl)methyl]cyclopentyl]methyl]-4,5,6,7,8,9-hexahydrocycloocta[b]thiophene-2-carboxamide]
[1]
  EC50: 39.7 µM
[2]
  EC50: 23.1 µM
[3]
  EC50: 11.8 µM

## O=C(NCC1(CN2CCC(O)CC2)CCCC1)c1cc2c(s1)CCCCCC2 [Example 28, N-[[1-[(4-hydroxypiperidin-1-yl)methyl]cyclopentyl]methyl]-4,5,6,7,8,9-hexahydrocycloocta[b]thiophene-2-carboxamide]
[1]
  EC50: 10 µM
[2]
  EC50: 9.4 µM
[3]
  EC50: 6.7 µM

## CC(C)(CNC(=O)c1cc2c(s1)CCCCCC2)CN1CCCCC1 [Example 13, N-(2,2-dimethyl-3-piperidin-1-ylpropyl)-4,5,6,7,8,9-hexahydrocycloocta[b]thiophene-2-carboxamide]
[1]
  EC50: 16 µM
[2]
  EC50: 16.9 µM
[3]
  EC50: 9.6 µM

## O=C(NCC1(CN2CCCC2)CCCC1)c1cc2c(s1)CCCCCC2 [Example 5, N-[[1-(pyrrolidin-1-ylmethyl)cyclopentyl]methyl]-4,5,6,7,8,9-hexahydrocycloocta[b]thiophene-2-carboxamide]
[1]
  EC50: 11.3 µM
[2]
  EC50: 10.2 µM
[3]
  EC50: 12.9 µM
